Assay results: paper PMC6522927, “Fibrate-based N-acylsulphonamides targeting carbonic anhydrases: synthesis, biochemical evaluation, and docking studies” (Journal of Enzyme Inhibition and Medicinal Chemistry, 2019)
Entries after “also recorded” stand apart in the source; their conditions may differ.

Experiments:
hCA II = molecular target: T1, hCA II (Homo sapiens, UniProt P00918); assay: stopped-flow CO2 hydrase assay, hCA II; format: biochemical; settings: for inhibition of hCA II (in words): result stated in words; for Ki: recombinant hCA II, CO2 hydration, 15 min preincubation
T1 construct: made in house
Protocol: (§1) An Applied Photophysics stopped-flow instrument has been used for assaying the CA catalysed CO2 hydration activity. Phenol red (0.2 mM) has been used as indicator, working at the absorbance maximum of 557 nm, with 20 mM Hepes (pH 7.5, for α-CAs) as buffer, and 20 mM NaClO4 (for maintaining constant the ionic strength), following the initial rates of the CA-catalysed CO2 hydration reaction for a period of 10–100 s. The CO2 concentrations ranged from 1.7 to 17 mM for the determination of the kinetic parameters and inhibition constants. In particular, CO2 was bubbled in distilled deionised water for 30 min till saturation. A CO2 kit (Sigma, Milan, Italy) was used to measure the concentration in serially diluted solutions from the saturated one at the same temperature. For each inhibitor at least six traces of the initial 5–10% of the reaction have been used for determining the initial velocity. The uncatalysed rates were determined in the same manner and subtracted from the total observed rates. Stock solutions of inhibitor ([…]) were prepared in distilled–deionised water and dilutions up to 0.1 nM were done thereafter with the assay buffer. Inhibitor and enzyme solutions were preincubated together for 15 min at room temperature prior to assay, in order to allow for the formation of the E–I complex or for the eventual active site mediated hydrolysis of the inhibitor. The inhibition constants were obtained by non-linear least-squares methods using PRISM 3 and the Cheng–Prusoff equation and represent the average from at least three different determinations. All recombinant CA isoforms were obtained in-house as previously reported[24]^,[25].

hCA I = molecular target: T2, hCA I (Homo sapiens, UniProt P00915); assay: stopped-flow CO2 hydrase assay, hCA I; format: biochemical; settings: for inhibition of hCA I (in words): result stated in words; for Ki: recombinant hCA I, CO2 hydration, 15 min preincubation
T2 construct: made in house
T2 sequence (P00915 whole entry): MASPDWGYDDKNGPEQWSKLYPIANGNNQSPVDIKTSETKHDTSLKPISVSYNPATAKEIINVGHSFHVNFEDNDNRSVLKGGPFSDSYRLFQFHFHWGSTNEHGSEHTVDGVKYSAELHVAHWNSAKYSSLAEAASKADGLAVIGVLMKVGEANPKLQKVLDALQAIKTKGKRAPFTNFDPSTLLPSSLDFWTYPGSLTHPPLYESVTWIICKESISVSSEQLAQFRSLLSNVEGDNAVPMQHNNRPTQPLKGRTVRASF
Protocol: as §1

hCA XII = molecular target: T3, hCA XII (Homo sapiens, UniProt O43570); assay: stopped-flow CO2 hydrase assay, hCA XII; format: biochemical; settings: result stated in words
T3 construct: made in house
T3 sequence (O43570 25-354): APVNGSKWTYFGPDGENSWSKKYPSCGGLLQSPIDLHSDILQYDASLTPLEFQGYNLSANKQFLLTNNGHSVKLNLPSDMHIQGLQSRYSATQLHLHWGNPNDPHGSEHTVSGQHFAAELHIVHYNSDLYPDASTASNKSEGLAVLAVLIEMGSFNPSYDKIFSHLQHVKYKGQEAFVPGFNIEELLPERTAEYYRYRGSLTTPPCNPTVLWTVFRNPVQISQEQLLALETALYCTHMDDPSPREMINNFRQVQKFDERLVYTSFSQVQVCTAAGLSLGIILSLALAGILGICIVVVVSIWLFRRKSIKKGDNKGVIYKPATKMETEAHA
Protocol: as §1

hCA IX = molecular target: T4, hCA IX (Homo sapiens, UniProt Q16790); assay: stopped-flow CO2 hydrase assay, hCA IX; format: biochemical; settings: for inhibition of hCA IX (in words): result stated in words
T4 construct: made in house
Protocol: as §1

Structure (SMILES)	inhibition of hCA II (in words) (hCA II)	inhibition of hCA I (in words) (hCA I)	inhibition of hCA XII (in words) (hCA XII)	inhibition of hCA IX (in words) (hCA IX)	Ki (hCA II)	Ki (hCA I)	Ki (hCA IX; recombinant hCA IX, CO2 hydration, 15 min preincubation)	melting point
CC(C)(Oc1ccc(Cl)cc1)C(=O)NS(=O)(=O)c1ccccc1 [Compound 15]	completely inactive	completely inactive	completely inactive	completely inactive	–	–	–	–
Cc1ccc(C)c(OCCCC(C)(C)C(=O)NS(=O)(=O)c2ccccc2)c1 [Compound 16]	completely inactive	completely inactive	completely inactive	completely inactive	–	–	–	–
CC(C)(Oc1ccc(CCNC(=O)c2ccc(Cl)cc2)cc1)C(=O)NS(=O)(=O)c1ccccc1 [Compound 17]	moderate inhibition	moderate inhibition	–	moderate inhibition	–	–	–	–
CC(C)(Oc1ccc(C(=O)c2ccc(Cl)cc2)cc1)C(=O)NS(=O)(=O)c1ccccc1 [Compound 18]	moderate inhibition	moderate inhibition; also recorded: submicromolar	–	moderate inhibition; also recorded: submicromolar	1.3 µM	< 10 µM	0.44 µM	–
O=C(COc1ccc(C(=O)c2ccccc2)cc1)NS(=O)(=O)c1ccccc1 [Compound 26, 2-(4-Benzoylphenoxy)-N-(phenylsulphonyl)acetamide]	did not induce a sensible inhibition	did not induce a sensible inhibition	did not induce a sensible inhibition	did not induce a sensible inhibition	–	–	–	61 to 62 °C
CCCC(Oc1ccc(C(=O)c2ccccc2)cc1)C(=O)NS(=O)(=O)c1ccccc1 (stereo not shown) [Compound 27, 2-(4-Benzoylphenoxy)-N-(phenylsulphonyl)pentanamide]	did not induce a sensible inhibition	did not induce a sensible inhibition	did not induce a sensible inhibition	did not induce a sensible inhibition	–	–	–	–

The remaining lines, values ahead:

inhibition of hCA II (in words) (hCA II)	inhibition of hCA I (in words) (hCA I)	inhibition of hCA XII (in words) (hCA XII)	inhibition of hCA IX (in words) (hCA IX)	Ki (hCA II)	Ki (hCA I)	Ki (hCA IX; recombinant hCA IX, CO2 hydration, 15 min preincubation)	melting point	Structure (SMILES)
–	–	–	–	–	–	–	188 to 189 °C	COc1ccc(S(=O)(=O)NC(=O)C(C)(C)Oc2ccc(C(=O)c3ccc(Cl)cc3)cc2)cc1 [Compound 20, 2-[4-(4-Chlorobenzoyl)phenoxy]-N-[(4-methoxyphenyl)sulfonyl]-2-methylpropanamide]
–	–	–	–	–	< 10 µM	–	204 to 205 °C (dec.)	CC(C)(Oc1ccc(C(=O)c2ccc(Cl)cc2)cc1)C(=O)NS(=O)(=O)c1ccc(Cl)cc1 [Compound 21, 2-[4–(4-Chlorobenzoyl)phenoxy]-N-[(4-chlorophenyl)sulfonyl]-2-methylpropanamide]
–	–	–	–	0.016 µM	–	–	196 to 198 °C	CC(C)(Oc1ccc(C(=O)c2ccc(Cl)cc2)cc1)C(=O)NS(=O)(=O)c1ccc([N+](=O)[O-])cc1 [Compound 22, 2-[4–(4-Chlorobenzoyl)phenoxy]-2-methyl-N-[(4-nitrophenyl)sulfonyl]propanamide]
–	–	–	–	–	–	–	226 to 228 °C	CC(=O)Nc1ccc(S(=O)(=O)NC(=O)C(C)(C)Oc2ccc(C(=O)c3ccc(Cl)cc3)cc2)cc1 [Compound 23, N-{[4-(acetylamino)phenyl]sulfonyl}-2-[4–(4-chlorobenzoyl)phenoxy]-2-methylpropanamide]
marked effect	marked effect	–	–	0.077 µM	< 10 µM	–	232 to 234 °C	CC(C)(Oc1ccc(C(=O)c2ccc(Cl)cc2)cc1)C(=O)NS(=O)(=O)c1ccc(NC(=O)c2ccccc2)cc1 [Compound 24, N-{4-[({2-[4–(4-chlorobenzoyl)phenoxy]-2-methylpropanoyl}amino)sulfonyl]phenyl} benzamide]
